Data reported in paper PMC8780828 (Viruses, 2021).
Values after ≈ are worked out from the molar mass of the structure shown. Where two headings read alike, the source gives them in different places.

Experiments:
[1] = rat, in vivo
[2] = target: T1, CYP2C8 (Homo sapiens, UniProt P10632); test: biochemical
[3] = target: CYP2C19 (Homo sapiens, UniProt P33261); test: biochemical
[4] = target: T2, CYP1A2 (Homo sapiens, UniProt P05177); test: in vitro; conditions: microsomes, pH 7.4
[5] = target: T3, CYP2B6 (Homo sapiens, UniProt P20813); test: in vitro; conditions: microsomes, pH 7.4
[6] = in vitro; conditions: both, human, microsomes, pH 7.4
[7] = system: pseudovirus NL4-3ΔEnv-NanoLuc/MERS-CoV; test: microbe, parasite or virus in culture; type: cell-based; conditions: Middle East respiratory syndrome-related coronavirus, Huh-7; n=3; read-out: IC50
[8] = target: CYP2D6 (Homo sapiens, UniProt P10635); test: in vitro; conditions: microsomes, pH 7.4
[9] = physchem
[10] = system: Trypsin; type: biochemical
[11] = target: T1, CYP2C8; test: in vitro; conditions: microsomes, pH 7.4
[12] = target: β-lactamase; type: biochemical
[13] = target: CYP3A (Homo sapiens, UniProt P08684); conditions: n=1
[14] = in vitro; conditions: both, human, plasma
[15] = system: Caco-2 cells
[16] = target: malate dehydrogenase (MDH); type: biochemical
[17] = target: T2, CYP1A2; test: biochemical
[18] = system: pseudovirus NL4-3ΔEnv-NanoLuc/MERS-CoV; test: microbe, parasite or virus in culture; type: cell-based; conditions: Middle East respiratory syndrome-related coronavirus, MRC5; n=3; read-out: IC50
[19] = target: SARS-CoV-2 spike S1 subunit protein (Severe acute respiratory syndrome coronavirus 2, UniProt P0DTC2); type: binding
[20] = system: control pseudovirus NL4-3.Luc.R-E-/A-MLV; test: Control pseudovirus A-MLV assay in 293T/ACE2 cells; type: cell-based, amphotropic murine leukemia virus (A-MLV); conditions: NL43, 293T/ACE2
[21] = system: SARS-CoV-2 (US_WA-1/2020); type: cell-based
[22] = in vivo; conditions: female, Sprague Dawley, rat; for MRT inf: MRT0-inf_obs; for half-life: t1/2
[23] = system: pseudovirus NL4-3ΔEnv-NanoLuc/SARS-CoV; test: microbe, parasite or virus in culture; type: cell-based; conditions: Severe acute respiratory syndrome coronavirus, A549-ACE2; n=3; read-out: IC50
[24] = system: pseudovirus NL4-3ΔEnv-NanoLuc/SARS-CoV-2; test: SARS-CoV-2 pseudovirus assay with pre-treated 293T/ACE2 cells; type: cell-based; conditions: 293T/ACE2 cells pre-treated with compound 30 min before infection
[25] = system: pseudovirus NL4-3ΔEnv-NanoLuc/SARS-CoV; test: microbe, parasite or virus in culture; type: cell-based; conditions: Severe acute respiratory syndrome coronavirus, HT-1080; n=3; read-out: IC50
[26] = target: CYP2C9 (Homo sapiens, UniProt P11712); test: in vitro; conditions: microsomes, pH 7.4
[27] = target: T3, CYP2B6; test: biochemical
[28] = system: NL4-3ΔEnv-NanoLuc/SARS-CoV-2; test: organism not typed; type: cell-based
[29] = female, Sprague Dawley, iv, 5 mg/kg

T2 sequence (P05177 whole entry): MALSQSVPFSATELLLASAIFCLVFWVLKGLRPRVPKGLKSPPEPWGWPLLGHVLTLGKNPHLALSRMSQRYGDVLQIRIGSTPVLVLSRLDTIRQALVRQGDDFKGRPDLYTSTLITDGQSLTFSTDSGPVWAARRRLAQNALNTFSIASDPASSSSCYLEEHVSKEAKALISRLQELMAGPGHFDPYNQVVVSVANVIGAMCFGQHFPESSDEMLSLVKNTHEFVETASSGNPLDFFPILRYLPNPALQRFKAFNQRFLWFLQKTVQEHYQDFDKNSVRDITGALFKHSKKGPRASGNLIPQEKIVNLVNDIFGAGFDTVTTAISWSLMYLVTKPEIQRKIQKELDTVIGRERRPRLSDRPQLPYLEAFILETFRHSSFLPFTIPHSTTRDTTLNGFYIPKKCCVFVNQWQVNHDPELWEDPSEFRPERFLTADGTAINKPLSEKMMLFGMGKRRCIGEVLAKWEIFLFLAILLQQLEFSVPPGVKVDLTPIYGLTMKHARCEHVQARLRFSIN
CYP3A, sequence (P08684 2-503): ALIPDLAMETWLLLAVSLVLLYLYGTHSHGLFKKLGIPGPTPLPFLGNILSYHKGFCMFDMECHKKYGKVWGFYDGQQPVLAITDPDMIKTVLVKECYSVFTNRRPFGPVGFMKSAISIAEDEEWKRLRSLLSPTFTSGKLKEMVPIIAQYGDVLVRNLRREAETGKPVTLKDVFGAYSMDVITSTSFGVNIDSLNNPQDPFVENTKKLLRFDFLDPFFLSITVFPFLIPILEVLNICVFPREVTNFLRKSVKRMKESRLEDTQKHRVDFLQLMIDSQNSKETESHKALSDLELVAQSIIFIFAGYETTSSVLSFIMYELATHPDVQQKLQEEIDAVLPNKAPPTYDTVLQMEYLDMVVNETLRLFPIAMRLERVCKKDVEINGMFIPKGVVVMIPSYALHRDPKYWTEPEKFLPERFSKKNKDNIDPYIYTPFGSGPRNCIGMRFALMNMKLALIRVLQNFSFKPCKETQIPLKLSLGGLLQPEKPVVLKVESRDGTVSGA
T1 sequence (P10632 whole entry): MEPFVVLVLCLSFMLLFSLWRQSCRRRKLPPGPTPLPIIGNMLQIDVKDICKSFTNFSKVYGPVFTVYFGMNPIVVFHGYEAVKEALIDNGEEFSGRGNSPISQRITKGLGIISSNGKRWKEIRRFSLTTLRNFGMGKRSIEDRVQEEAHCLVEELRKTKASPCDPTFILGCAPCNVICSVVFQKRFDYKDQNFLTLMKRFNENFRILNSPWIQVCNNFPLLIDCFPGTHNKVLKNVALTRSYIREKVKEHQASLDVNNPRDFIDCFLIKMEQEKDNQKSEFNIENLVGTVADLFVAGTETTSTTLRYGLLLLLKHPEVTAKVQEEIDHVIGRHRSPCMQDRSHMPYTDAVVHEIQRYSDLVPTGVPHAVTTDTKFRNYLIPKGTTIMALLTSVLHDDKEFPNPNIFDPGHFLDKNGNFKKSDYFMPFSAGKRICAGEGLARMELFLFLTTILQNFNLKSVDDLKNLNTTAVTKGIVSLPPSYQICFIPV
CYP2C9, sequence (P11712 whole entry): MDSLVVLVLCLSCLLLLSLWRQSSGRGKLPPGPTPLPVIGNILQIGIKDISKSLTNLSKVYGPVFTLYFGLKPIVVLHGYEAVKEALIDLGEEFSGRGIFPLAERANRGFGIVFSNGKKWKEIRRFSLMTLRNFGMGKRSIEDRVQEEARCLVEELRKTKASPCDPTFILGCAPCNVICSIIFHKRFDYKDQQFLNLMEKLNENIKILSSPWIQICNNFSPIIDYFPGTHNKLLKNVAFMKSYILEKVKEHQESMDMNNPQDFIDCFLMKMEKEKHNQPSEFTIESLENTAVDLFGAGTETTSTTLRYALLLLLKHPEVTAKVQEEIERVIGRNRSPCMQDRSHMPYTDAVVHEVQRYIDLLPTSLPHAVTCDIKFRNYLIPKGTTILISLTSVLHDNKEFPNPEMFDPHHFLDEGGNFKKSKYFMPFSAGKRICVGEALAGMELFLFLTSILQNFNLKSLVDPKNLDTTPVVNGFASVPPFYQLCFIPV
T3 sequence (P20813 whole entry): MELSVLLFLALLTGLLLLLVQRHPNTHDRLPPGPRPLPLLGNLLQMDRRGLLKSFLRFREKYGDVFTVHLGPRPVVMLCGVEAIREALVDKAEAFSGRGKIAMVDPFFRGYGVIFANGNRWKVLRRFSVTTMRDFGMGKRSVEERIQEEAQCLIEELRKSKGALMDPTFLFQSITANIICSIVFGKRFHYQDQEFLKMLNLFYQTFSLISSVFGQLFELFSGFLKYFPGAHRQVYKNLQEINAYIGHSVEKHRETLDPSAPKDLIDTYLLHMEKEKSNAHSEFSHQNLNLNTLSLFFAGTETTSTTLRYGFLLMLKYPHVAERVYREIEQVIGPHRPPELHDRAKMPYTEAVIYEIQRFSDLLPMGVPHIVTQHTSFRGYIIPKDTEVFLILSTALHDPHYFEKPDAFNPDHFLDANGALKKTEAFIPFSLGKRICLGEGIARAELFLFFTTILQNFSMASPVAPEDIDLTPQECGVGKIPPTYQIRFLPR
CYP2D6, sequence (P10635 whole entry): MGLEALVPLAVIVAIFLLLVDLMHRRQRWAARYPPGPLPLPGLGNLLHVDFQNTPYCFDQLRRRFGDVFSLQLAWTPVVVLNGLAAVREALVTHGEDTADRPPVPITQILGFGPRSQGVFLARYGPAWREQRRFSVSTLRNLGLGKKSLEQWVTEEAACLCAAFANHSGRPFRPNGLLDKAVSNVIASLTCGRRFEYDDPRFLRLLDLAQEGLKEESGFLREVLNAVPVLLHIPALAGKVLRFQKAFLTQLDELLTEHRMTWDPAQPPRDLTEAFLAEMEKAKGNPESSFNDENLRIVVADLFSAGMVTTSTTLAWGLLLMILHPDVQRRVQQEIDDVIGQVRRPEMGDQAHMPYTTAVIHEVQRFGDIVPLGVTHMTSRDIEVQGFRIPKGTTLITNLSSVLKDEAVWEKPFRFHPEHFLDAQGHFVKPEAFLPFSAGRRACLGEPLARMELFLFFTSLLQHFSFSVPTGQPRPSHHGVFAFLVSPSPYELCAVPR
CYP2C19, sequence (P33261 whole entry): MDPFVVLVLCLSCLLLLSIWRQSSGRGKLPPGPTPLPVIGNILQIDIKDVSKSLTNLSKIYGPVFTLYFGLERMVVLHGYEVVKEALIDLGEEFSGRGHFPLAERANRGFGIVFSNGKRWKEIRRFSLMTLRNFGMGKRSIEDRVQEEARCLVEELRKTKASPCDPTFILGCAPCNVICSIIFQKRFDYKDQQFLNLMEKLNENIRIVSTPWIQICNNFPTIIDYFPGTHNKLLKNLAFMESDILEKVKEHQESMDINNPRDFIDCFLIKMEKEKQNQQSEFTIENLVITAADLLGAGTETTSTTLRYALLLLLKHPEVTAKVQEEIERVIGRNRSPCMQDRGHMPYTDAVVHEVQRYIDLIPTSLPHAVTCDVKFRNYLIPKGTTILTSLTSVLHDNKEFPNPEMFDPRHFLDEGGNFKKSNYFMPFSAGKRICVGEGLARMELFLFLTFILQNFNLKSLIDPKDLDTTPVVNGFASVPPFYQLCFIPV

O=C(O)c1cc(-c2ccc(/C=C3\SC(=S)N(CCc4ccccc4)C3=O)o2)ccc1Cl [NBCoV1]
F% (bioavailability) ([1]; female, Sprague Dawley): 20.1%
CLobs [1, 29]: 0.00013 (mg/kg)/(ng/mL)/h
Vss_obs [1, 29]: 0.00053 (mg/kg)/(ng/mL)
AUC0-t ([1]; iv, 5 mg/kg): 37,515.91 ng/mL ∗ h
AUC0-t ([1]; po, 10 mg/kg): 12,023.00 ng/mL ∗ h
Vz/F_obs ([1]; po, 10 mg/kg): 0.01078 (mg/kg)/(ng/mL)
IC50 [2]: 2080 nM
IC50 [3]: 7310 nM
activity at 0.0137 µM [4]: 99.2%
activity at 0.0412 µM [4]: 96.7%
activity at 0.123 µM [4]: 93.8%
activity at 0.37 µM [4]: 92.2%
activity at 1.11 µM [4]: 89.8%
activity at 3.33 µM [4]: 69.5%
activity at 10 µM [4]: 41.3%
activity at 0.0137 µM [5]: 97.5%
activity at 0.0412 µM [5]: 98.1%
activity at 0.123 µM [5]: 90.4%
activity at 0.37 µM [5]: 94.2%
activity at 1.11 µM [5]: 76.9%
activity at 3.33 µM [5]: 47%
activity at 10 µM [5]: 15.2%
half-life [6]: 1.87 h
microsomal CLint [6]: 12.4 µL/min/mg
remaining at 0.25 h [6]: 101%
remaining at 0.5 h [6]: 80.5%
remaining at 1 h [6]: 68.9%
remaining at 1.5 h [6]: 69.5%
remaining at 2 h [6]: 41.6%
IC50 [7]: 95 ± 22 nM
IC50 [8]: > 10000 nM
activity at 0.0137 µM [8]: 95.8%
activity at 0.0412 µM [8]: 98.7%
activity at 0.123 µM [8]: 98.6%
activity at 0.37 µM [8]: 101%
activity at 1.11 µM [8]: 97%
activity at 3.33 µM [8]: 84.3%
activity at 10 µM [8]: 59.2%
solubility ([9]; pH 7.4, Solubility (AVG)): 4.72 µM (≈ 2.22 µg/mL)
solubility ([9]; pH 7.4, Solubility, single replicates (R1, R2)): 4.35 µM (≈ 2.04 µg/mL)
IC50 [10]: > 2000 nM
activity at 0.0137 µM [11]: 102%
activity at 0.0412 µM [11]: 89%
activity at 0.123 µM [11]: 98.3%
activity at 1.11 µM [11]: 76.9%
activity at 3.33 µM [11]: 25.3%
activity at 10 µM [11]: 3.87%
IC50 [12]: > 2000 nM
% of Control Enzyme Activity ([13]; 0.0137 μM): 96.6%
% of Control Enzyme Activity ([13]; 0.0412 μM): 97.0%
% of Control Enzyme Activity ([13]; 0.123 μM): 94.8%
% of Control Enzyme Activity ([13]; 0.370 μM, 0.37 µM): 96.3%
% of Control Enzyme Activity ([13]; 1.11 μM): 94.6%
% of Control Enzyme Activity ([13]; 3.33 μM): 82.2%
% of Control Enzyme Activity ([13]; 10 μM): 59.9%
fraction unbound [14]: < 0.005
fraction unbound ([14]; % Bound, single replicates (R1, R2)): < 0.005
Caco-2 permeability (mean Papp) A-to-B ([15]; 5 µM): 20.5 ×10⁻⁶ cm/s
Caco-2 permeability (mean Papp) B-to-A ([15]; 5 µM): 23.6 ×10⁻⁶ cm/s
P-gp Substrate classification ([15]; Caco-2): Negative
IC50 [16]: > 2000 nM
IC50 [17]: 7400 nM
IC50 [18]: 76.5 ± 0.3 nM
kd [19]: 0.0257 s⁻¹
IC50 [20]: 1397 ± 12 nM
IC100 [21]: > 10 µM
bioavailability ([22]; F% (bioavailability)): 20%
C0 ([22]; iv, 5 mg/kg): 7410 ng/mL
Tmax ([22]; iv, 5 mg/kg): 0.25 h
Cmax ([22]; iv, 5 mg/kg): 7820 ng/mL
MRT inf ([22]; iv, 5 mg/kg): 4.02 h
half-life ([22]; iv, 5 mg/kg): 3.57 h
Tmax ([22]; po, 10 mg/kg): 2 h
Cmax ([22]; po, 10 mg/kg): 1500 ng/mL
MRT inf ([22]; po, 10 mg/kg): 14 h
half-life ([22]; po, 10 mg/kg): 11.3 h
IC50 [23]: 98 ± 4 nM
IC50 [24]: > 2000 nM
IC50 [25]: 39 ± 8.2 nM
activity at 0.0137 µM [26]: 99.4%
activity at 0.0412 µM [26]: 98.2%
activity at 0.123 µM [26]: 97.2%
activity at 0.37 µM [26]: 95.1%
activity at 1.11 µM [26]: 85.1%
activity at 3.33 µM [26]: 59.9%
activity at 10 µM [26]: 29.8%
IC50 [27]: 3190 nM
IC100 (range of IC100 values detected in the three cell lines) [28]: 0.25 to 1 µM
IC50 ([28]; read-out: IC50 (range over the three cell lines)): 32.3 to 63.4 nM
